In patent publication US11279733B2, “Peptide antibiotics” (priority 2017, dated 2022):
≈ marks a conversion by molar mass, not a printed value. Positions of bridges follow the written chain, without caps; N, C: chain ends. Non-standard residues stand in square brackets, D forms with d. Residues, ends and D or L forms follow the SMILES beside them. *: point of attachment. Ala(benzothiazol-2-yl) = N[C@@H](Cc1nc2ccccc2s1)C(=O)O; Decanoyl(3R-OH) = CCCCCCC[C@@H](O)CC(=O)*; 2Nal = N[C@@H](Cc1ccc2ccccc2c1)C(=O)O; 3Pal = N[C@@H](Cc1cccnc1)C(=O)O; dDab = NCC[C@@H](N)C(=O)O; Dab = NCC[C@H](N)C(=O)O

Experiments:
A. baumannii ATCC 19606 = conditions: ATCC 19606
Method in brief: (§1)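 Mid-log cultures grown in Mueller Hinton broth at 37° C were tested by 2-fold broth microdilution at 5×10^5 CFU/mL final. Compounds were dissolved in water and tested over a final range of 32 to 0.015 μg/mL.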

A. baumannii GN_093 PmxR = conditions: GN 093 PmxR
Method in brief: as §1

E. coli ATCC 25922 = conditions: ATCC 25922
Method in brief: as §1

K. pneumoniae ATCC 13883 = conditions: ATCC 13883
Method in brief: as §1

[1] = system: K. pneumoniae ATCC 700603, MDR; conditions: ATCC 700603
Method in brief: as §1

[2] = system: K. pneumoniae ATCC BAA-2146, NDM-1 pos; conditions: ATCC BAA-2146
Method in brief: as §1

[3] = system: K. pneumoniae GN_102 PmxR; conditions: GN 102 PmxR
Method in brief: as §1

[4] = system: K. pneumoniae GN_106, PmxR; conditions: GN 106, PmxR
Method in brief: as §1

P. aeruginosa ATCC 27853 = conditions: ATCC 27853
Method in brief: as §1

[5] = system: P. aeruginosa GN_043, PmxR; conditions: polymyxin-resistant
Method in brief: as §1

[6] = system: P. aeruginosa GN_105, PmxR; conditions: GN 105, PmxR
Method in brief: as §1

[7] = system: S. aureus ATCC 25923, MSSA; conditions: ATCC 25923
Method in brief: as §1

in vitro = conditions: human
Method in brief: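 Fluorescence read-out (excitation 560, emission 590) after a 2 h, 37 °C incubation with 5 μM resazurin, following 24 h compound treatment of cells plated at 4000 per well. CC50 values come from fitting dose–response curves of growth inhibition.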

CCCCCCC[C@@H](O)CC(=O)N[C@H](CCN)C(=O)N[C@H]1CCNC(=O)[C@H](Cc2cccnc2)NC(=O)[C@H](CCN)NC(=O)[C@H](CCN)NC(=O)[C@H](CC(C)C)NC(=O)[C@@H](Cc2ccccc2)NC(=O)[C@H](CCN)NC1=O [compound 8907, 3(R)OH-nC9CO-D-Dab-cyc[L-Dab-L-Dab-D-Phe-L-Leu-L-Dab-L-Dab-L-Ala(3py)]] ({Decanoyl(3R-OH)}-[dDab][Dab][Dab][dF]L[Dab][Dab][3Pal]; lactam 2-C)
MIC A. baumannii ATCC 19606 (A. baumannii ATCC 19606): >32 µg/mL | MIC A. baumannii GN_093 PmxR (A. baumannii GN_093 PmxR): >32 µg/mL | MIC E. coli ATCC 25922 (E. coli ATCC 25922): 4 µg/mL (≈ 3.71 µM) | MIC K. pneumoniae ATCC 13883 (K. pneumoniae ATCC 13883): 4 µg/mL (≈ 3.71 µM) | MIC K. pneumoniae ATCC 700603, MDR [1]: 4 µg/mL (≈ 3.71 µM) | MIC K. pneumoniae ATCC BAA-2146, NDM-1 pos [2]: 8 µg/mL (≈ 7.41 µM) | MIC K. pneumoniae GN_102 PmxR [3]: 32 µg/mL (≈ 29.6 µM) | MIC K. pneumoniae GN_106, PmxR [4]: 8 µg/mL (≈ 7.41 µM) | MIC P. aeruginosa ATCC 27853 (P. aeruginosa ATCC 27853): 1 µg/mL (≈ 0.926 µM) | MIC P. aeruginosa GN_043, PmxR [5]: 1 µg/mL (≈ 0.926 µM) | MIC P. aeruginosa GN_105, PmxR [6]: 1 µg/mL (≈ 0.926 µM) | MIC S. aureus ATCC 25923, MSSA [7]: >32 µg/mL | CC50 at 24 h (in vitro): > 300 µM

CCCCCCC[C@@H](O)CC(=O)N[C@H](CCN)C(=O)N[C@H]1CCNC(=O)[C@H](Cc2ccc3ccccc3c2)NC(=O)[C@H](CCN)NC(=O)[C@H](CCN)NC(=O)[C@H](CC(C)C)NC(=O)[C@@H](Cc2ccccc2)NC(=O)[C@H](CCN)NC1=O [compound 8908, 3(R)OH-nC9CO-D-Dab-cyc[L-Dab-L-Dab-D-Phe-L-Leu-L-Dab-L-Dab-L-Ala(2Naphthyl)]] ({Decanoyl(3R-OH)}-[dDab][Dab][Dab][dF]L[Dab][Dab][2Nal]; lactam 2-C)
MIC A. baumannii ATCC 19606 (A. baumannii ATCC 19606): 4 µg/mL (≈ 3.54 µM) | MIC A. baumannii GN_093 PmxR (A. baumannii GN_093 PmxR): 4 µg/mL (≈ 3.54 µM) | MIC E. coli ATCC 25922 (E. coli ATCC 25922): 2 µg/mL (≈ 1.77 µM) | MIC K. pneumoniae ATCC 13883 (K. pneumoniae ATCC 13883): 2 µg/mL (≈ 1.77 µM) | MIC K. pneumoniae ATCC 700603, MDR [1]: 4 µg/mL (≈ 3.54 µM) | MIC K. pneumoniae ATCC BAA-2146, NDM-1 pos [2]: 4 µg/mL (≈ 3.54 µM) | MIC K. pneumoniae GN_102 PmxR [3]: 4 µg/mL (≈ 3.54 µM) | MIC K. pneumoniae GN_106, PmxR [4]: 4 µg/mL (≈ 3.54 µM) | MIC P. aeruginosa ATCC 27853 (P. aeruginosa ATCC 27853): 4 µg/mL (≈ 3.54 µM) | MIC P. aeruginosa GN_043, PmxR [5]: 4 µg/mL (≈ 3.54 µM) | MIC P. aeruginosa GN_105, PmxR [6]: 2 µg/mL (≈ 1.77 µM) | MIC S. aureus ATCC 25923, MSSA [7]: 4 µg/mL (≈ 3.54 µM) | CC50 at 24 h (in vitro): 39 µM

CCCCCCC[C@@H](O)CC(=O)N[C@H](CCN)C(=O)N[C@H]1CCNC(=O)[C@H](Cc2nc3ccccc3s2)NC(=O)[C@H](CCN)NC(=O)[C@H](CCN)NC(=O)[C@H](CC(C)C)NC(=O)[C@@H](Cc2ccccc2)NC(=O)[C@H](CCN)NC1=O [compound 8910, 3(R)OH-nC9CO-D-Dab-cyc[L-Dab-L-Dab-D-Phe-L-Leu-L-Dab-L-Dab-L-Ala(Bth)]] ({Decanoyl(3R-OH)}-[dDab][Dab][Dab][dF]L[Dab][Dab][Ala(benzothiazol-2-yl)]; lactam 2-C)
MIC A. baumannii ATCC 19606 (A. baumannii ATCC 19606): 8 µg/mL (≈ 7.05 µM) | MIC A. baumannii GN_093 PmxR (A. baumannii GN_093 PmxR): 4 µg/mL (≈ 3.52 µM) | MIC E. coli ATCC 25922 (E. coli ATCC 25922): 2 µg/mL (≈ 1.76 µM) | MIC K. pneumoniae ATCC 13883 (K. pneumoniae ATCC 13883): 4 µg/mL (≈ 3.52 µM) | MIC K. pneumoniae ATCC 700603, MDR [1]: 4 µg/mL (≈ 3.52 µM) | MIC K. pneumoniae ATCC BAA-2146, NDM-1 pos [2]: 4 µg/mL (≈ 3.52 µM) | MIC K. pneumoniae GN_102 PmxR [3]: 8 µg/mL (≈ 7.05 µM) | MIC K. pneumoniae GN_106, PmxR [4]: 4 µg/mL (≈ 3.52 µM) | MIC P. aeruginosa ATCC 27853 (P. aeruginosa ATCC 27853): 2 µg/mL (≈ 1.76 µM) | MIC P. aeruginosa GN_043, PmxR [5]: 4 µg/mL (≈ 3.52 µM) | MIC P. aeruginosa GN_105, PmxR [6]: 2 µg/mL (≈ 1.76 µM) | MIC S. aureus ATCC 25923, MSSA [7]: 4 µg/mL (≈ 3.52 µM) | CC50 at 24 h (in vitro): 47 µM
